Assay results published in publication PMC3419223, “Transient Receptor Potential Ankyrin 1 Channel Localized to Non-Neuronal Airway Cells Promotes Non-Neurogenic Inflammation” (PLoS ONE, 2012).

Columns and labels:
TRPA1 = biological target: T1, TRPA1 (Homo sapiens, UniProt O75762); test: Calcium imaging (Fura-2) of TRPA1 agonist responses in human airway/lung cells; format: cell-based; details: for EC50: intracellular calcium response
T1 construct: cultured human airway cells, including fibroblasts, epithelial and smooth muscle cells express functional TRPA1 channels; endogenous in cells; host or cells: SAEC, NHLF, HBSMC (Lonza, primary); A549, IMR90 (ATCC)
T1 sequence (O75762 whole entry): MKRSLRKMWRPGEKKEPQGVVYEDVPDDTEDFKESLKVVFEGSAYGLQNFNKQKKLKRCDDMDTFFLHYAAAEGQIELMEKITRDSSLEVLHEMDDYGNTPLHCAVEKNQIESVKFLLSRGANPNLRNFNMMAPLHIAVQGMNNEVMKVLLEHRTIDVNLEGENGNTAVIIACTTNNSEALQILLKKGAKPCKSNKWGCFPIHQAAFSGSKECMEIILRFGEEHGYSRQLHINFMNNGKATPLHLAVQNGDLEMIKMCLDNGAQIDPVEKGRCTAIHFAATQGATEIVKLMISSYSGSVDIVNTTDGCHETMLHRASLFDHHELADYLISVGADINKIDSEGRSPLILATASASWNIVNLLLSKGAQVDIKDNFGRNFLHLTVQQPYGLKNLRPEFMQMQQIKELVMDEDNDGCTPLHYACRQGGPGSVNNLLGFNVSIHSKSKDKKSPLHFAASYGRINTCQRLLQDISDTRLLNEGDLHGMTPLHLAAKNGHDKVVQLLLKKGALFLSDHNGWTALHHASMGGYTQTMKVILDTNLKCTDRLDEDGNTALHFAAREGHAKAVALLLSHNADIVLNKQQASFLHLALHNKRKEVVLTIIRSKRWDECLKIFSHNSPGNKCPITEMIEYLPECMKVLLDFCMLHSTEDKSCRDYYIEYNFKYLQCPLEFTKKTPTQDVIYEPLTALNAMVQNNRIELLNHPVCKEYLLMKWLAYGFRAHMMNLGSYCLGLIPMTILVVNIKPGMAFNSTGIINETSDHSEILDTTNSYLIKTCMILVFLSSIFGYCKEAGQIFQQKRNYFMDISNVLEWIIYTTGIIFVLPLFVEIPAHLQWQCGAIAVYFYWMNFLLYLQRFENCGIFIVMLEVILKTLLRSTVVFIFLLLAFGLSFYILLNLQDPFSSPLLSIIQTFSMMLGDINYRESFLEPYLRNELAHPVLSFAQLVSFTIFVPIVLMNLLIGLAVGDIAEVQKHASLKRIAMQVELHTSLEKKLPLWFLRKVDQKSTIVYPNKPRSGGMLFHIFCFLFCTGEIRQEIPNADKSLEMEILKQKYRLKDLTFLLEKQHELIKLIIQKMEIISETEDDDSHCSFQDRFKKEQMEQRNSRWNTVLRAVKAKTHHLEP
Experimental: Human small airway epithelial cells (SAEC), normal human lung fibroblasts (NHLF) and human bronchial smooth muscle cells (HBSMC) were purchased from Lonza. Human alveolar type II epithelium-like adherent cell line (A549) and human lung embryonic fibroblast (IMR90) were purchased from American Type Culture Collection (Manassas, VA). SAEC and NHLF were cultured respectively in SAGM and FBM medium (Lonza) according to the manufacturer's instructions. IMR90 and HBSMC were cultured in DMEM supplemented with 10% FBS, 2 mM glutamine, 100 U penicillin and 100 µg/ml streptomycin (Sigma-Aldrich), and A549 were cultured in RPMI supplemented with 10% FBS, 2 mM glutamine, 100 U penicillin, 100 µg/ml streptomycin and 1 mM HEPES (Sigma-Aldrich). All cells were cultured in an atmosphere of 95% air and 5% CO2 at 37°C.
CSE was generated as previously reported. Briefly, aqueous CSE was obtained from the combustion of four cigarettes (Marlboro Red, 12 mg of tar, 0.9 mg of nicotine each) bubbled through 50 ml of buffer and subsequently filtered through a 0.2-µm pore filter (Millipore). To ensure reproducibility among different CSE batches, the absorbance (optical density; OD) measured at 320 nm was used as a measure of the “strength” of the extract. Dilutions were made with buffer to obtain the desired absorbance. The CSE was freshly prepared on the day of the experiment and used immediately after preparation.
(§1) For calcium fluorescence measurements, cells were incubated with 5 µM Fura-2AM ester (Alexis Biochemicals) for 40 minutes at 37°C. Intracellular calcium levels were measured and recorded with a dynamic image analysis system (Laboratory Automation 2.0; RC Software). Fluorescence was measured during excitation at 340 and 380 nm, and after correction for the individual background fluorescence signals, the ratio of the fluorescence at both excitation wavelengths (Ratio340/380) was monitored. Experiments were performed using buffer solution containing (in mM): 150 NaCl, 6 KCl, 1 MgCl2, 1.5 CaCl2, 10 glucose, 10 HEPES at pH 7.4. Cells were stimulated with cinnamaldehyde (0.1–3000 µM), acrolein (0.1–3000 µM), CSE (0.001–0.5 OD), capsaicin (1 µM) and the activating peptide (SLIGKV-NH2) of the human PAR-2 receptor (hPAR-2 AP; 100 µM), or their respective vehicles (0.3% DMSO,aqueous buffer or 1% ethanol). HC-030031 and AP18 vehicles (used in all the in vitro experiments) were 3% DMSO and 1% DMSO, respectively. Results are expressed as the increase of Ratio340/380 over the baseline normalized to the maximum effect induced by ionomycin (5 µM) added at the end of the experiment.

PAR-2 receptor = biological target: T2, PAR-2 receptor (Homo sapiens, UniProt P55085); test: Calcium imaging, response to the PAR-2 activating peptide (selectivity control); format: cell-based; details: PAR-2 AP 100 µM; antagonist 10 µM
T2 construct: endogenous in cells
T2 sequence (P55085 26-397): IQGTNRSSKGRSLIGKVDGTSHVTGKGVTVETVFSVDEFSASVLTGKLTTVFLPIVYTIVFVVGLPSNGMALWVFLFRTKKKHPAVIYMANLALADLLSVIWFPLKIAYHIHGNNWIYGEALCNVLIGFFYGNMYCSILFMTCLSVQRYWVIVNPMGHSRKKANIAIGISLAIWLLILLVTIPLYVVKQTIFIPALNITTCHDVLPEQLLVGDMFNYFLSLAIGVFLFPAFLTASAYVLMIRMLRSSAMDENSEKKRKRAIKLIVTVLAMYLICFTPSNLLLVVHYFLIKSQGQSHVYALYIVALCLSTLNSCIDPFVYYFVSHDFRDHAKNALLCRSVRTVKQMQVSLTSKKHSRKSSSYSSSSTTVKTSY
Experimental: as §1

[1] = system: IL-8 release from SAEC, NHLF and HBSMC; test: IL-8 release from human airway/lung cells in primary culture, ELISA; format: cell-based
Experimental: For IL-8 ELISA assays, HBSMC, SAEC, and NHLF were seeded in complete culture medium in 48-well plates, grown to ∼80–90% confluence, and incubated overnight in serum-free medium before treatments. All the treatments were performed in serum free medium. Cells were pretreated with the selective TRPA1 antagonists, HC-030031 and AP18, or their vehicles, for 30–60 min before treatment with freshly prepared acrolein, CSE, TNF-α and IL-1β for 18 hours at 37°C with 5% CO2. Subsequently, supernatants were collected and stored at −80°C for ELISA assay. Human IL-8 was measured using a paired antibody quantitative ELISA kit (Invitrogen) (detection limit: 5 pg/ml). The assays were performed according to the manufacturer's instructions. Vitality assay method (MTT reduction assay) is available online as (Text S1).

[2] = system: C57BL/6 mouse trachea and bronchi; test: Plasma protein extravasation (Evans blue dye) after intratracheal instillation; format: in vivo; details: C57BL/6 mice
Experimental: (§2) To defunctionalize/desensitize TRPV1 expressing primary sensory neurons, resiniferatoxin (RTX) was administered to C57BL/6 mice, as previously described, [40]. Briefly, mice were treated subcutaneously (s.c.) with a single injection of RTX (50 µg/kg) or its vehicle (10% ethanol and 10% tween 80 in isotonic saline) into the scruff of the neck under a light ether anesthesia to avoid unnecessary pain. Experiments were carried out 7 days after RTX treatment when responses to both TRPV1 and TRPA1 agonists in the treated mice were abolished, [40].
Anesthetized (sodium pentobarbital, 50 mg/kg i.p.) C57BL/6 mice received Evans blue dye (30 mg/kg i.v.), 1 min before intratracheal (i.t) instillation (30 µl) of acrolein (5 mM), capsaicin (100 µM), SP (25 nM), CSE (1 OD) or their vehicles (isotonic saline, 1% ethanol in isotonic saline and isotonic saline). […] The tachykinin NK1 receptor antagonist, L-733,060 (2 µmol/kg i.v.; Tocris) or its vehicle were administered 15 min before the stimulus. The TRPV1 selective antagonist, capsazepine, (30 mg/kg i.p.) or its vehicle (2.5% DMSO in isotonic saline) and intragastric (i.g.) TRPA1 selective antagonist, HC-030031 (300 mg/kg i.g.) or its vehicle were administered 30 and 60 min before the stimulus, respectively. In another set of experiments ACR (5 mM, i.t.), or its vehicle, has been administered in C57BL/6 mice desensitized to RTX (50 µg/kg; s.c.). Animals were euthanized 15 min after treatment and transcardially perfused with 0.9% isotonic saline solution. The extravasated dye was extracted from mouse trachea and bronchi by overnight incubation in formamide and assayed by spectrophotometry at 620 nm, as reported previously.

[3] = system: C57BL/6 mice, Trpa1+/+ or Trpa1-/- mice; test: KC (CXCL-1) release in bronchoalveolar lavage fluid, ELISA; format: in vivo, mouse; details: C57BL/6 mice
Experimental: as §2
Trpa1^+/+ or Trpa1^−/− B6129P mice (5 per group) were exposed acutely to the cigarette smoke (CS) produced with commercial cigarettes (Marlboro Red, 12 mg of tar, 0.9 mg of nicotine each), by using a “nose-only” exposure unit. The smoke produced by cigarette burning was introduced into the exposure chamber (inner volume = 11.61 l) with the airflow generated by a mechanical ventilator (7025 Rodent Ventilator, Ugo Basile) at a rate of 250 ml/min [58]. A second mechanical ventilator was used to provide room air for dilution (1∶8) of the smoke stream. Mice were exposed to the smoke of 5 cigarettes per exposure period, twice daily, for 3 consecutive days, and sacrificed 24 hours later. Genotype-, age-, strain- and sex-matched control animals were exposed to air only in the same manner for the same duration of time. Anesthetized C57BL/6, and Trpa1^+/+ or Trpa1^−/− (C57BL/6) mice were intratracheally administered with (30 µl) acrolein (5 mM), capsaicin (100 µM), SP (25 nM) and CSE (1 OD) or their vehicles (isotonic saline, 1% ethanol in isotonic saline and isotonic saline) and sacrificed 24 hours later. The NK1 receptor antagonist, L-733,060 (2 µmol/kg i.v.; Tocris) or its vehicle (isotonic saline) were administered 15 min before the stimulus, and i.g. HC-030031 (300 mg/kg) or its vehicle (0.5% CMC in isotonic saline 0.9%) were administered 1 hour before the stimulus. In another set of experiments ACR (5 mM, i.t.), or its vehicle, has been administered in C57BL/6 mice desensitized to RTX (50 µg/kg; s.c.). Animals were sacrificed 24 hours after the last exposure/treatment with an overdose of anesthetic followed by exsanguination, and the lungs were lavaged using a cannula inserted into the trachea and instilling 1 ml of Hank's Buffer added with HEPES 10 mM and EDTA 10 mM three times. […] BAL were centrifuged at 200× g at 4°C for 10 min, and the cell-free supernatants were stored at −80°C for cytokine determination. Frozen cell-free BAL was analyzed for keratinocyte chemoattractant (CXCL-1/KC, the murine analogue of IL-8) release by using a commercial ELISA-assay (Invitrogen).

TRPV1 = test: Calcium imaging, response to the TRPV1 agonist capsaicin in human airway/lung cells; format: cell-based; details: 1 µM; SAEC, A549, NHLF, IMR90 and HBSMC; data not shown
[4] = i.t. 30 µl, acrolein 5 mM, CSE 1 OD, capsaicin 100 µM, SP 25 nM

CC(=C\c1ccc(Cl)cc1)/C(C)=N/O [AP18]
effect of antagonist on calcium response evoked by CNM, ACR or CSE (TRPA1; A549 and IMR90, antagonist 10 µM): abolished
effect of antagonist on calcium responses to CNM, ACR and CSE (TRPA1; SAEC, NHLF, HBSMC, antagonist 10 µM): prevented
effect of antagonist on calcium response to the PAR-2 activating peptide (PAR-2 receptor): did not affect
effect of antagonist on CSE-evoked IL-8 release ([1]; HC-030031 30 µM, AP18 10 µM): reduced
effect of antagonist on IL-8 release induced by IL-1β or TNF-α ([1]; HC-030031 30 µM, AP18 10 µM): not affected
effect of antagonist on acrolein-evoked IL-8 release ([1]; HC-030031 30 µM, AP18 10 µM): significantly reduced

FC(F)(F)c1cc(CO[C@H]2CCCN[C@H]2c2ccccc2)cc(C(F)(F)F)c1 [L-733,060]
effect on acrolein (5 mM, i.t.)- and CSE (1 OD, i.t.)-evoked increase in PPE ([2]; L-733,060 2 µmol/kg i.v., CPZ 30 mg/kg i.p., HC 300 mg/kg i.g.): prevent
effect on SP (25 nM)- and capsaicin (100 µM)-evoked Evans blue dye extravasation (PPE) ([2]; L-733,060 2 µmol/kg i.v., capsazepine 30 mg/kg i.p., HC-030031 300 mg/kg i.g.): prevented
effect of pretreatment on KC release evoked by acrolein or CSE ([3]; HC-030031 300 mg/kg i.g., L-733,060 2 µmol/kg i.v.): failed to reduce

O=C/C=C/c1ccccc1 [Cinnamaldehyde, cinnamaldehyde]
EC50 (TRPA1; A549): 10.9 µM
EC50 (TRPA1; HBSMC): 6.7 µM
EC50 (TRPA1; IMR90): 2.7 µM
EC50 (TRPA1; NHLF): 6.6 µM
EC50 (TRPA1; SAEC): 46.3 µM
IL-8 release ([1]; overnight exposure): release IL-8

COc1cc(CNC(=O)CCCC/C=C/C(C)C)ccc1O [capsaicin]
calcium response (TRPV1): failed to produce any visible calcium response
plasma protein extravasation (PPE) after instillation into the tracheal lumen [2, 4]: increased PPE
KC in BAL 24 hours after intratracheal instillation [3, 4]: failed to increase
